{"source": "patent US8859615B2", "about": "“Compounds, compositions and methods for reducing toxicity and treating or preventing diseases” (priority 2008, dated 2014)", "test_system": "human colon carcinoma HCT-116 xenografts", "assay": "Compound D with Iso-Oxazole-Fludelone or Isodehydelone in nude mice bearing HCT-116 xenografts", "conditions": "mouse, in vivo", "note": "Where “and” joins values, the source holds several entries; their conditions need not be identical. Identical values can stand only once."}
{"substance": "iso-oxazole-fludelone (17-isooxazole-fludelone) [Iso-Flu]", "values": [{"measurement": "complete remission (CR)", "result": "6/6 and 1/6"}]}
